This assay concerns MV-4-11 cells. Nature of the assay: Gene expression microarray analysis (Affymetrix PrimeView) and GSEA. The assay is classed as cell-based, human. The arrangement: RFU PODN (11730768_x_at) / Fold change /veh PODN (11730768_x_at) / RFU LINC00158 (11744669_a_at) / Fold change /veh LINC00158 (11744669_a_at) / RFU DUSP10 (11751237_a_at) / Fold change /veh DUSP10 (11751237_a_at) / RFU ID3 (11757404_x_at) / Fold change /veh ID3 (11757404_x_at) / RFU PLEKHG5 (11737974_s_at) / Fold change /veh PLEKHG5 (11737974_s_at) / RFU LRRC4B (11730491_at) / Fold change /veh LRRC4B (11730491_at) / RFU GIMAP4 (11747438_a_at) / Fold change /veh GIMAP4 (11747438_a_at) / RFU KRT8 (11758183_x_at) / Fold change /veh KRT8 (11758183_x_at) / RFU CNN1 (11734310_a_at) / Fold change /veh CNN1 (11734310_a_at) / RFU VPS37D (11726825_at) / Fold change /veh VPS37D (11726825_at) / RFU C10orf10 (11716522_x_at) / Fold change /veh C10orf10 (11716522_x_at) / RFU KIR2DL2 /// KIR2DL4 /// KIR2DL5A /// KIR2DL5B /// KIR2DS1 /// KIR2DS2 /// KIR2DS3 /// KIR2DS4 /// KIR3DL3 /// KIR3DL3 /// KIR3DS1 (11738374_at) / Fold change /veh KIR2DL2 /// KIR2DL4 /// KIR2DL5A /// KIR2DL5B /// KIR2DS1 /// KIR2DS2 /// KIR2DS3 /// KIR2DS4 /// KIR3DL3 /// KIR3DL3 /// KIR3DS1 (11738374_at) / RFU C1QL1 (11718748_at) / Fold change /veh C1QL1 (11718748_at) / RFU TMPRSS4 (11747572_a_at) / Fold change /veh TMPRSS4 (11747572_a_at) / RFU HAMP (11756126_x_at) / Fold change /veh HAMP (11756126_x_at) / RFU RNFT2 (11725882_a_at) / Fold change /veh RNFT2 (11725882_a_at) / RFU NR4A2 (11747474_a_at) / Fold change /veh NR4A2 (11747474_a_at) / RFU ABCC12 (11746883_a_at) / Fold change /veh ABCC12 (11746883_a_at) / RFU TMEM136 (11760407_x_at) / Fold change /veh TMEM136 (11760407_x_at) / RFU CLDN22 /// WWC2 (11732394_at) / Fold change /veh CLDN22 /// WWC2 (11732394_at) / RFU HLA-DPB1 (11760878_x_at) / Fold change /veh HLA-DPB1 (11760878_x_at) / RFU SPINT1 (11716480_a_at) / Fold change /veh SPINT1 (11716480_a_at) / RFU GAP43 (11754022_s_at) / Fold change /veh GAP43 (11754022_s_at) / RFU A4GNT (11735810_at) / Fold change /veh A4GNT (11735810_at) / RFU PRB3 (11715151_x_at) / Fold change /veh PRB3 (11715151_x_at) / RFU TUBB4B (11761932_at) / Fold change /veh TUBB4B (11761932_at) / RFU CAPN14 (11732068_a_at) / Fold change /veh CAPN14 (11732068_a_at) / RFU TMCC2 (11721928_a_at) / Fold change /veh TMCC2 (11721928_a_at) / RFU IRGQ (11745062_a_at) / Fold change /veh IRGQ (11745062_a_at) / RFU FAM174B (11720279_a_at) / Fold change /veh FAM174B (11720279_a_at) / RFU TMPRSS4 (11748680_a_at) / Fold change /veh TMPRSS4 (11748680_a_at) / RFU FAM212B (11763350_a_at) / Fold change /veh FAM212B (11763350_a_at) / RFU PLEKHG5 (11743358_a_at) / Fold change /veh PLEKHG5 (11743358_a_at) / RFU ZSCAN30 (11745921_a_at) / Fold change /veh ZSCAN30 (11745921_a_at) / RFU CMKLR1 (11741424_a_at) / Fold change /veh CMKLR1 (11741424_a_at) / RFU LOC101060620 /// MAPK8IP1 (11723275_at) / Fold change /veh LOC101060620 /// MAPK8IP1 (11723275_at) / RFU SPTSSB (11747773_x_at) / Fold change /veh SPTSSB (11747773_x_at) / RFU PRSS12 (11739890_at) / Fold change /veh PRSS12 (11739890_at) / RFU BIN1 (11741810_x_at) / Fold change /veh BIN1 (11741810_x_at) / RFU WNT11 (11732464_a_at) / Fold change /veh WNT11 (11732464_a_at) / RFU C10orf10 (11716521_a_at) / Fold change /veh C10orf10 (11716521_a_at) / RFU C5orf56 (11738089_at) / Fold change /veh C5orf56 (11738089_at) / RFU CYB561 (11721691_x_at) / Fold change /veh CYB561 (11721691_x_at) / RFU ANKRD19P (11752326_a_at) / Fold change /veh ANKRD19P (11752326_a_at) / RFU OR2T12 /// OR2T33 /// OR2T8 (11738714_s_at) / Fold change /veh OR2T12 /// OR2T33 /// OR2T8 (11738714_s_at) / RFU VCAN (11748164_a_at) / Fold change /veh VCAN (11748164_a_at) / RFU JSRP1 (11732532_at) / Fold change /veh JSRP1 (11732532_at) / RFU KRTAP10-11 (11738290_x_at) / Fold change /veh KRTAP10-11 (11738290_x_at) / RFU MYO3A (11730013_a_at) / Fold change /veh MYO3A (11730013_a_at) / RFU EBF3 (11725865_a_at) / Fold change /veh EBF3 (11725865_a_at) / RFU CAMK2N1 (11719241_x_at) / Fold change /veh CAMK2N1 (11719241_x_at) / RFU C5orf56 (11738088_a_at) / Fold change /veh C5orf56 (11738088_a_at) / RFU OLFML3 (11715873_a_at) / Fold change /veh OLFML3 (11715873_a_at) / RFU LOC100653217 /// NTM (11731650_a_at) / Fold change /veh LOC100653217 /// NTM (11731650_a_at) / RFU MAPK11 (11762145_a_at) / Fold change /veh MAPK11 (11762145_a_at) / RFU FIZ1 (11724087_x_at) / Fold change /veh FIZ1 (11724087_x_at) / RFU OASL (11726364_x_at) / Fold change /veh OASL (11726364_x_at) / RFU SOX15 (11748057_x_at) / Fold change /veh SOX15 (11748057_x_at) / RFU CD79A (11719716_a_at) / Fold change /veh CD79A (11719716_a_at) / RFU HIST1H1D (11736915_at) / Fold change /veh HIST1H1D (11736915_at) / RFU CASKIN2 (11723855_a_at) / Fold change /veh CASKIN2 (11723855_a_at) / RFU LOC730098 (11760151_x_at) / Fold change /veh LOC730098 (11760151_x_at) / RFU OR4N2 (11742367_at) / Fold change /veh OR4N2 (11742367_at) / RFU PRRT2 (11749266_a_at) / Fold change /veh PRRT2 (11749266_a_at) / RFU SNX32 (11753110_a_at) / Fold change /veh SNX32 (11753110_a_at) / RFU CDHR5 (11726645_a_at) / Fold change /veh CDHR5 (11726645_a_at) / RFU RCAN1 (11760418_a_at) / Fold change /veh RCAN1 (11760418_a_at) / RFU FAM167A (11723789_a_at) / Fold change /veh FAM167A (11723789_a_at) / RFU FAM26E (11764081_at) / Fold change /veh FAM26E (11764081_at) / RFU ISYNA1 (11749810_s_at) / Fold change /veh ISYNA1 (11749810_s_at) / RFU ACY1 (11761880_at) / Fold change /veh ACY1 (11761880_at) / RFU 11764098_at / Fold change /veh 11764098_at / RFU SAMD14 (11745864_x_at) / Fold change /veh SAMD14 (11745864_x_at) / RFU NPB (11741838_a_at) / Fold change /veh NPB (11741838_a_at) / RFU TMPRSS6 (11731388_a_at) / Fold change /veh TMPRSS6 (11731388_a_at) / RFU KRTAP10-2 (11738614_at) / Fold change /veh KRTAP10-2 (11738614_at) / RFU ARHGAP8 /// PRR5-ARHGAP8 (11727945_x_at) / Fold change /veh ARHGAP8 /// PRR5-ARHGAP8 (11727945_x_at) / RFU KRTAP5-7 /// NADSYN1 (11734609_at) / Fold change /veh KRTAP5-7 /// NADSYN1 (11734609_at) / RFU RASL12 (11751679_a_at) / Fold change /veh RASL12 (11751679_a_at) / RFU CDKN2B (11736163_a_at) / Fold change /veh CDKN2B (11736163_a_at) / RFU PRF1 (11729649_at) / Fold change /veh PRF1 (11729649_at) / RFU, ZNF638 /// ZNF638-IT1 / Fold change vs veh, ZNF638 /// ZNF638-IT1 / RFU, PANK3 / Fold change vs veh, PANK3 / RFU, SH3YL1 / Fold change vs veh, SH3YL1 / RFU, ZEB2 / Fold change vs veh, ZEB2 / RFU, NRIP1 / Fold change vs veh, NRIP1 / RFU, PTTG1IP / Fold change vs veh, PTTG1IP / RFU, CAPN2 / Fold change vs veh, CAPN2 / RFU, MED14 / Fold change vs veh, MED14 / RFU, SNORA58 / Fold change vs veh, SNORA58 / RFU, C1orf63 / Fold change vs veh, C1orf63 / RFU, LRRFIP1 / Fold change vs veh, LRRFIP1 / RFU, NDUFAF7 / Fold change vs veh, NDUFAF7 / RFU, SLC12A2 / Fold change vs veh, SLC12A2 / RFU, IBTK / Fold change vs veh, IBTK / RFU, ESF1 / Fold change vs veh, ESF1 / Fold change vs veh, TMEM50B / RFU, TAOK1 / Fold change vs veh, TAOK1 / RFU, ACBD3 / Fold change vs veh, ACBD3 / RFU, TMA16 / Fold change vs veh, TMA16 / RFU, RWDD3 / Fold change vs veh, RWDD3 / RFU, BCAT1 / Fold change vs veh, BCAT1 / RFU, EDEM3 / Fold change vs veh, EDEM3 / RFU, TMEM33 / Fold change vs veh, TMEM33 / RFU, WDR75 / Fold change vs veh, WDR75 / RFU, AHCTF1 / Fold change vs veh, AHCTF1 / RFU, TFRC / Fold change vs veh, TFRC / RFU, ZDHHC17 / Fold change vs veh, ZDHHC17 / RFU, NOM1 / Fold change vs veh, NOM1 / RFU, ARL8B / Fold change vs veh, ARL8B / RFU, ZBTB11 / Fold change vs veh, ZBTB11 / RFU, TAMM41 / Fold change vs veh, TAMM41 / RFU, KIAA1704 /// LOC100996395 / Fold change vs veh, KIAA1704 /// LOC100996395 / RFU, ING1 / Fold change vs veh, ING1 / RFU, TRMT61B / Fold change vs veh, TRMT61B / RFU, FUBP3 / Fold change vs veh, FUBP3 / RFU, TP53 / Fold change vs veh, TP53 / RFU, TNKS2 / Fold change vs veh, TNKS2 / RFU, ZFP14 / Fold change vs veh, ZFP14 / RFU, ACTR2 / Fold change vs veh, ACTR2 / RFU, PPP3R1 / Fold change vs veh, PPP3R1 / RFU, PIK3R1 / Fold change vs veh, PIK3R1 / RFU, HNRNPA1 / Fold change vs veh, HNRNPA1 / RFU, RNF170 / Fold change vs veh, RNF170 / RFU, ZNF28 / Fold change vs veh, ZNF28 / RFU, RNGTT / Fold change vs veh, RNGTT / RFU, OGT / Fold change vs veh, OGT / RFU, BRD1 / Fold change vs veh, BRD1 / RFU, MARS / Fold change vs veh, MARS / RFU, ZNF655 / Fold change vs veh, ZNF655 / RFU, FAHD1 / Fold change vs veh, FAHD1 / RFU, BDP1 / Fold change vs veh, BDP1 / RFU, LRRCC1 / Fold change vs veh, LRRCC1 / RFU, ARID1A / Fold change vs veh, ARID1A / RFU, ZNF146 / Fold change vs veh, ZNF146 / RFU, ZNF330 / Fold change vs veh, ZNF330 / RFU, GPN3 / Fold change vs veh, GPN3 / RFU, C9orf123 / Fold change vs veh, C9orf123 / RFU, N4BP2L2 / Fold change vs veh, N4BP2L2 / RFU, ARFIP1 / Fold change vs veh, ARFIP1 / RFU, FAM179B / Fold change vs veh, FAM179B / RFU, BCL10 / Fold change vs veh, BCL10 / RFU, UHRF1BP1L / Fold change vs veh, UHRF1BP1L / RFU, BET1 / Fold change vs veh, BET1 / RFU, CNOT2 / Fold change vs veh, CNOT2 / RFU, ZNF268 / Fold change vs veh, ZNF268 / Fold change vs veh, ZNF507 / RFU, DGCR2 / Fold change vs veh, DGCR2 / RFU, WDSUB1 / Fold change vs veh, WDSUB1 / Fold change vs veh, HSP90B1 /// MIR3652 / RFU, ADSS / Fold change vs veh, ADSS / RFU, GK / Fold change vs veh, GK / RFU, ZNF148 / Fold change vs veh, ZNF148 / RFU, TAF9 / Fold change vs veh, TAF9 / RFU, SLC1A5 / Fold change vs veh, SLC1A5 / RFU, SLMO2 / Fold change vs veh, SLMO2 / RFU, ABCC4 / Fold change vs veh, ABCC4 / RFU, LOC101060439 /// RAP1B / Fold change vs veh, LOC101060439 /// RAP1B / RFU, RFX7 / Fold change vs veh, RFX7 / RFU, GTPBP10 / Fold change vs veh, GTPBP10 / RFU, CNEP1R1 / Fold change vs veh, CNEP1R1 / RFU, BIVM-ERCC5 /// ERCC5 / Fold change vs veh, BIVM-ERCC5 /// ERCC5 / RFU, ILF3 / Fold change vs veh, ILF3 / RFU 11762660_at / Fold change /veh 11762660_at / RFU VCAN (11757783_s_at) / Fold change /veh VCAN (11757783_s_at) / RFU DDX43 (11728927_at) / Fold change /veh DDX43 (11728927_at) / RFU KRT8 (11758188_x_at) / Fold change /veh KRT8 (11758188_x_at) / RFU NKD1 (11759106_at) / Fold change /veh NKD1 (11759106_at) / RFU SRD5A1 (11742802_a_at) / Fold change /veh SRD5A1 (11742802_a_at) / RFU TPSAB1 /// TPSB2 (11721975_s_at) / Fold change /veh TPSAB1 /// TPSB2 (11721975_s_at) / RFU GSTM3 (11746129_a_at) / Fold change /veh GSTM3 (11746129_a_at) / RFU IL23R (11737362_x_at) / Fold change /veh IL23R (11737362_x_at) / RFU TMEM51 (11727254_a_at) / Fold change /veh TMEM51 (11727254_a_at) / RFU PIWIL2 (11732686_x_at) / Fold change /veh PIWIL2 (11732686_x_at) / RFU ORM1 (11744905_x_at) / Fold change /veh ORM1 (11744905_x_at) / RFU CCDC152 (11743942_at) / Fold change /veh CCDC152 (11743942_at) / RFU ECM1 (11717891_a_at) / Fold change /veh ECM1 (11717891_a_at) / RFU IL23R (11748794_a_at) / Fold change /veh IL23R (11748794_a_at) / RFU TNFAIP8L3 (11732012_x_at) / Fold change /veh TNFAIP8L3 (11732012_x_at) / RFU MBOAT4 (11741988_at) / Fold change /veh MBOAT4 (11741988_at) / RFU 11764193_at / Fold change /veh 11764193_at / RFU TMEM53 (11763286_at) / Fold change /veh TMEM53 (11763286_at) / RFU MAGEB2 (11727129_at) / Fold change /veh MAGEB2 (11727129_at) / RFU TMEM200A (11744735_a_at) / Fold change /veh TMEM200A (11744735_a_at) / RFU CCDC152 (11751479_a_at) / Fold change /veh CCDC152 (11751479_a_at) / RFU FAM211A (11726209_a_at) / Fold change /veh FAM211A (11726209_a_at) / RFU RGS16 (11746705_a_at) / Fold change /veh RGS16 (11746705_a_at) / RFU VCAN (11755009_s_at) / Fold change /veh VCAN (11755009_s_at) / RFU RHOB (11743442_s_at) / Fold change /veh RHOB (11743442_s_at) / RFU RGS16 (11720943_a_at) / Fold change /veh RGS16 (11720943_a_at) / RFU RGS16 (11720944_at) / Fold change /veh RGS16 (11720944_at) / RFU, VPS4B / Fold change vs veh, VPS4B / RFU, CREB1 / Fold change vs veh, CREB1 / RFU, DNAJC13 / Fold change vs veh, DNAJC13 / RFU, GNAQ / Fold change vs veh, GNAQ / RFU, CDK5R1 / Fold change vs veh, CDK5R1 / RFU, ZRANB3 / Fold change vs veh, ZRANB3 / RFU, CUL4A / Fold change vs veh, CUL4A / RFU, CCNY / Fold change vs veh, CCNY / RFU, UFL1 / Fold change vs veh, UFL1 / RFU, COG3 / Fold change vs veh, COG3 / RFU, DIAPH2 / Fold change vs veh, DIAPH2 / RFU, SKA2 / Fold change vs veh, SKA2 / RFU, AFF3 / Fold change vs veh, AFF3 / RFU, LMF1 / Fold change vs veh, LMF1 / RFU, IPO11 / Fold change vs veh, IPO11 / RFU, DFFB / Fold change vs veh, DFFB / RFU, FOXP1 / Fold change vs veh, FOXP1 / RFU, CARD8 / Fold change vs veh, CARD8 / RFU, STRN3 / Fold change vs veh, STRN3 / RFU, ADK / Fold change vs veh, ADK / RFU, RASSF2 / Fold change vs veh, RASSF2 / RFU, WIPF1 / Fold change vs veh, WIPF1 / RFU, LARP1B / Fold change vs veh, LARP1B / RFU, RASA1 / Fold change vs veh, RASA1 / RFU, RB1 / Fold change vs veh, RB1 / RFU, PPFIA1 / Fold change vs veh, PPFIA1 / RFU, MAT2A / Fold change vs veh, MAT2A / RFU, CCT5 / Fold change vs veh, CCT5 / RFU, WDR92 / Fold change vs veh, WDR92 / RFU, CUX1 / Fold change vs veh, CUX1 / RFU, TTC7A / Fold change vs veh, TTC7A / RFU, TMEM135 / Fold change vs veh, TMEM135 / RFU, DEPTOR / Fold change vs veh, DEPTOR / RFU, CPM / Fold change vs veh, CPM / RFU, DNAJB6 / Fold change vs veh, DNAJB6 / RFU, CACNA2D3 / Fold change vs veh, CACNA2D3 / RFU, DTX4 / Fold change vs veh, DTX4 / RFU, TFCP2 / Fold change vs veh, TFCP2 / RFU, GMCL1 /// GMCL1P1 / Fold change vs veh, GMCL1 /// GMCL1P1 / RFU, AEBP2 / Fold change vs veh, AEBP2 / RFU, SNHG1 /// SNORD22 /// SNORD25 /// SNORD26 /// SNORD27 /// SNORD28 /// SNORD29 /// SNORD31 / Fold change vs veh, SNHG1 /// SNORD22 /// SNORD25 /// SNORD26 /// SNORD27 /// SNORD28 /// SNORD29 /// SNORD31 / Fold change (Aza/veh), C12orf56 (ProbeSet 11735607_a_at) / Fold change (ACY-1035/veh), C12orf56 (ProbeSet 11735607_a_at) / Fold change (Aza/veh), FGFR1OP (ProbeSet 11751329_s_at) / Fold change (ACY-1035/veh), FGFR1OP (ProbeSet 11751329_s_at) / Fold change (Aza/veh), VPS36 (ProbeSet 11739960_a_at) / Fold change (ACY-1035/veh), VPS36 (ProbeSet 11739960_a_at) / RFU SYPL1 (11715823_x_at) / Fold change /veh SYPL1 (11715823_x_at) / RFU IGFBP7 (11715501_s_at) / Fold change /veh IGFBP7 (11715501_s_at) / RFU REEP3 (11722064_at) / Fold change /veh REEP3 (11722064_at) / RFU IGLL1 (11728026_x_at) / Fold change /veh IGLL1 (11728026_x_at): dose or concentration left out as unconfirmed. Particulars: ProbeSet 11744854_x_at; LIST B.

Turning to `Nc1ccc(-c2cccs2)cc1NC(=O)c1ccc2c(c1)cc(C1CC1)n2CCN1CCOCC1` [ACY-1035], the “RFU, ZNF28” value was found to be 57.08 RFU.
